The results in this text go back to PubChem BioAssay AID1918945 (Molecular Pharmacology Branch, DTP, NCI, 2023).

The subject of this assay is 883617-216-R-J1-PDC complex spheroid viability. The experiment in a line: Anticancer human tumor 883617-216-R-J1-PDC patient-derived bladder carcinoma cell line growth inhibition. The conditions noted are these: for viability, T/C: stronger effect = lower value. In outline:
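Complex spheroids of tumor cells with HUVEC and human MSCs, exposed to iadademstat combined with other agents. Each agent tested in half-log steps from near clinical Cmax (else 10 microM top), DMSO ≤0.25%.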

SMILES strings stand for the structures. “And” between values parts separate entries of the source, which are not always exact repeats. Equal values may be shown once.
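Also: exposure lasted seven days after three days of spheroid growth.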
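For viability, T/C in this document: 100% = DMSO vehicle control luminescence.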

For the compound `O=C(C=Cc1cccc(S(=O)(=O)Nc2ccccc2)c1)NO`, the viability, T/C reads like this: (compound 0.00949 µM) 97.1% and 80.1%; (compound 0.03 µM) 76.2% and 59%; (compound 0.0949 µM) 51.9% and 41.6%; (compound 0.3 µM) 38.6% and 33.9%; (compound 0.949 µM) 28.6% and 14.6%; (compound 3 µM) 3.45% and 0.83%. For the same compound, the IC50 (curve of compound) is 0.158 µM and 0.066 µM.

`CC1COCCN1c1cc(C2(S(C)(=N)=O)CC2)nc(-c2ccnc3[nH]ccc23)n1` (configuration not stated) + NC1CCC(NC2CC2c2ccccc2)CC1: the IC50 runs as follows: (curve of first compound, second compound 0.1 µM) 1.05 µM; (curve of first compound, second compound 0.316 µM) 1.13 µM; (curve of first compound, second compound 1 µM) 1.08 µM; (curve of first compound, second compound 3.16 µM) 1.35 µM; (curve of first compound, second compound 10 µM) 1.52 µM. The viability, T/C (second compound 0.1 µM, first compound 0.0316 µM) was 106%; the viability, T/C (second compound 0.1 µM, first compound 0.1 µM) was 103%; the viability, T/C (second compound 0.1 µM, first compound 0.316 µM) is 78.9%; the viability, T/C (second compound 0.1 µM, first compound 1 µM) is 50.2%; the viability, T/C (second compound 0.1 µM, first compound 3.16 µM) was 43.9%; the viability, T/C (second compound 0.1 µM, first compound 10 µM) is 36.9%. For the same compound, the viability, T/C was 99.9% (second compound 0.316 µM, first compound 0.0316 µM); 101% (second compound 0.316 µM, first compound 0.1 µM); 77.7% (second compound 0.316 µM, first compound 0.316 µM); 51.8% (second compound 0.316 µM, first compound 1 µM); 39.7% (second compound 0.316 µM, first compound 3.16 µM); 33% (second compound 0.316 µM, first compound 10 µM). Also, the viability, T/C is, setting by setting: (second compound 1 µM, first compound 0.0316 µM) 101%; (second compound 1 µM, first compound 0.1 µM) 101%; (second compound 1 µM, first compound 0.316 µM) 70.8%; (second compound 1 µM, first compound 1 µM) 53.7%; (second compound 1 µM, first compound 3.16 µM) 39%; (second compound 1 µM, first compound 10 µM) 34.5%. Moreover, the viability, T/C runs as follows: (second compound 3.16 µM, first compound 0.0316 µM) 100%; (second compound 3.16 µM, first compound 0.1 µM) 93%; (second compound 3.16 µM, first compound 0.316 µM) 75.4%; (second compound 3.16 µM, first compound 1 µM) 52.9%; (second compound 3.16 µM, first compound 3.16 µM) 40.6%; (second compound 3.16 µM, first compound 10 µM) 31.5%. For the same compound, the viability, T/C was 106% (second compound 10 µM, first compound 0.0316 µM); 92.7% (second compound 10 µM, first compound 0.1 µM); 78.8% (second compound 10 µM, first compound 0.316 µM); 52% (second compound 10 µM, first compound 1 µM); 43.8% (second compound 10 µM, first compound 3.16 µM); 34.9% (second compound 10 µM, first compound 10 µM).

Broadly, the viability, T/C is the result in the treated group divided by that in the control group, in per cent. In general, IC50 refers to the concentration that gives 50% inhibition.
